From US10258038B2, “Use of heterocyclic compounds for controlling nematodes” (BAYER CROPSCIENCE AKTIENGESELLSCHAFT, priority 2014, dated 2019) come the findings set out here.

Like-named read-outs stand apart in the source and are kept apart here.

The subject of one series is Pratylenchus penetrans. Nature of the series: Pratylenchus penetrans test (soil application). It counts as in vivo. The settings on record: corn (Zea mays), after 2 weeks. The protocol: Pratylenchus penetrans—Test (Soil Application)
(§1) Solvent: 4 parts by weight acetone
(§2) Emulsifier: 1 part by weight alkylaryl polyglycol ether
(§3) To produce a suitable preparation of active compound, 1 part by weight of active compound is mixed with solvent and emulsifier at the ratio 4:1 and is diluted with water to the desired concentration.
This compound solution is mixed with 500 ml soil infected with Pratylenchus penetrans (800 nematodes per 100 ml). The stated concentration refers to the amount of compound per unit of volume soil (mg/1=ppm). The treated soil is filled into 500 ml pots and 3 corn seeds (Zea mays) are sown.
(§4) After 2 weeks the number of nematodes in the corn roots is determined by means of maceration. The roots are cleaned with water, cut into about 1 cm pieces and minced with water in a mixer for 10-15 seconds. The pieces are poured over a 0.2 mm-nematode sieve, rinsed with 400 ml water and the flow rate is collected. After 6 hours the supernatant is aspirated and the number of nematodes is determined microscopically with a counting chamber.
(§5) The average number of nematodes per pot is determined and efficieny is calculated by using Abbott's formula:
(§6) C=untreated control plants

Another series is described as follows: physchem. It counts as physicochemical. The settings on record: reversed-phase C18, acidic range pH 3.4 (formic acid), 55° C.; for chromatographic logP: read-out: log P. The protocol: 1) Description of Method for Determination of the log P Values (Formic Acid Method)
Eluents for determination in the acidic range (pH 3.4):
Eluent A: acetonitrile+1 ml of formic acid/liter. Eluent B: water+0.9 ml of formic acid/liter.
The lambda max values were determined in the maxima of the chromatographic signals using the UV spectra from 200 nm to 400 nm.

The next series concerns Meloidogyne incognita. Description: Meloidogyne incognita in tomato test (MELGIN soil application). It counts as in vivo. The note with it: application rate 2 ppm in soil; tomato seedling (Solanum lycopersicum); after five weeks. The protocol: Meloidogyne incognita in Tomato—Test (MELGIN Soil Application)
as §1, §2
To produce a suitable preparation of active compound, 1 part by weight of active compound is mixed with solvent and emulsifier at the ratio 4:1 and is diluted with water to the desired concentration. The stated concentration refers to the amount of compound per unit of volume soil (mg/1=ppm).
This compound composition is mixed with 500 ml of soil and 4 ml of a nematode suspension (1000 differenciated eggs and larvae of Meloidogyne incognita/ml). The stated concentration refers to the amount of compound per unit of volume soil (mg/1=ppm). The treated soil is filled in 500 ml pots and a tomato seedling (Solanum lycopersicum) is planted.
After five weeks the average number of galls in the tomato roots per pot are determined and efficieny is calculated by using Abbott's formula:
as §6

The next series deals with Globodera rostochiensis. Description: Globodera rostochiensis test (soil application). Type of series: in vivo. The note with it: application rate 2 ppm in soil; potato seedling; after six weeks. The protocol:
Globodera rostochiensis—Test (Soil Application)
as §1, §2
To produce a suitable preparation of active compound, 1 part by weight of active compound is mixed with solvent and emulsifier at the ratio 4:1 and is diluted with water to the desired concentration. This compound composition is mixed with soil. The stated concentration refers to the amount of compound per unit of volume soil (mg/1=ppm).
450 ml of this compound composition is mixed with 50 ml of soil infected with Globodera rostochiensis (20.000 nematodes/100 ml), filled in 500 ml pots and a potato seedling is planted.
After six weeks the average number of cysts in the potato roots per pot are determined and efficieny is calculated by using Abbott's formula:
as §6

Another series concerns Radopholus similis. Description: Radopholus similis test (soil application). Type of series: in vivo. The note with it: application rate 2 ppm in soil; banana seedling; after 2 weeks. The protocol: Radopholus similis—Test (Soil Application)
as §1, §2, §3
This compound solution is mixed with soil. The stated concentration refers to the amount of compound per unit of volume soil (mg/1=ppm). The treated soil is filled into 250 ml pots and a banana seedling is planted. Afterwards 2.5 ml of a nematode suspension (500 Radopholus similis/ml) are applied.
After 2 weeks the number of nematodes in the banana roots is determined by means of maceration. The roots are cut off, cleaned with water and after adding 25-40 ml 0.01% lactic acid—acid fuchsin solution they are boiled in a microwave. On the next day the roots are rinsed over a 0.025 mm-nematode sieve, roughly minced and macerated with 15-20 ml water in an Ultra Turrax. After filling up with water to 45 ml, the number of nematodes in the supernatant is determined microscopically with a counting chamber.
as §5, §6

In another series the test system is Pratylenchus zeae. Nature of the series: Pratylenchus zeae test (PRATZE soil application). The settings on record: application rate 2 ppm in soil; corn (Zea mays); after 2 weeks. Type of series: in vivo. The protocol:
Pratylenchus zeae—Test (PRATZE Soil Application)
as §1, §2, §3
This compound solution is mixed with 500 ml soil infected with Pratylenchus zeae (800 nematodes per 100 ml). The stated concentration refers to the amount of compound per unit of volume soil (mg/1=ppm). The treated soil is filled into 500 ml pots and 3 corn seeds (Zea mays) are sown.
as §4, §5, §6

For the compound `O=C(Nc1cnn(-c2c(F)cccc2F)n1)c1ccccc1C(F)(F)F` [Compound I-2-35, N-[2-(2,6-Difluorophenyl)-2H-1,2,3-triazol-4-yl]-2-(trifluoromethyl)benzamide], in the series on Pratylenchus penetrans (application rate 2 ppm in soil), the “activity (efficiency by Abbott's formula, number of nematodes in corn roots)” value stood at 90%. Moreover, the log partition coefficient (log P) in the series “physchem” (HPLC) came to 2.80. For the same compound, the “activity (efficiency by Abbott's formula, number of galls in tomato roots)” value in the series with Meloidogyne incognita came to 100%. In the series on Globodera rostochiensis, the “activity (efficiency by Abbott's formula, number of cysts in potato roots)” value was 100%.
As for `Nc1ccn(-c2ncc(F)cc2F)n1` [Ib-1, 1-(3,5-Difluoropyridin-2-yl)-1H-pyrazole-3-amine], the “log P” value in the series “physchem” (HPLC) came out at 0.81.
On the same count and under the same terms, for `Nc1cnn(-c2c(F)cccc2F)n1` [Ic-8, 2-(2,6-Difluorophenyl)-2H-1,2,3-triazole-4-amine] the value was 1.16; for `CC(=O)Nc1ccn(-c2c(F)cccc2F)n1` [Ia-3, N-[1-(2,6-Difluorophenyl)-1H-pyrazol-3-yl]acetamide], 1.33.
For the compound `O=C(Nc1ccn(-c2c(F)cccc2F)n1)c1ccccc1C(F)(F)F` [Compound I-1-75, N-[1-(2,6-difluorophenyl)-1H-pyrazol-3-yl]-2-(trifluoromethyl)benzamide], the “activity (efficiency by Abbott's formula, number of nematodes in corn roots)” value came to 88% with Pratylenchus penetrans (application rate 2 ppm in soil) and 89% in the series with Pratylenchus zeae. The “activity (efficiency by Abbott's formula, number of nematodes in banana roots)” value in the series with Radopholus similis came out at 90%. Moreover, the chromatographic logP in “physchem” (HPLC) turned out to be 2.68. Further, the “activity (efficiency by Abbott's formula, number of galls in tomato roots)” value in the series with Meloidogyne incognita is given as 100%. In addition, the “activity (efficiency by Abbott's formula, number of cysts in potato roots)” value with Globodera rostochiensis turned out to be 100%.
On to `CCN(C(=O)c1ccccc1C(F)(F)F)c1ccn(-c2ncc(F)cc2F)n1` [Compound I-1-468, N-[1-(3,5-difluoropyridin-2-yl)-1H-pyrazol-3-yl]-N-ethyl-2-(trifluoromethyl)benzamide], for which, in the series “physchem” (reversed-phase C18 HPLC column), the chromatographic logP worked out at 3.23. Further, in the series with Globodera rostochiensis, the “activity (efficiency by Abbott's formula, number of cysts in potato roots)” value worked out at 100%.
For the compound `N#Cc1nccnc1-n1ccc(NC(=O)c2ccccc2C(F)(F)F)n1` [Compound I-1-574, N-[1-(3-Cyanopyrazin-2-yl)-1H-pyrazol-3-yl]-2-(trifluoromethyl)benzamide], the “activity (efficiency by Abbott's formula, number of nematodes in corn roots)” value with Pratylenchus penetrans (application rate 4 ppm in soil) is 97%. For the same compound, in the series on Globodera rostochiensis, the “activity (efficiency by Abbott's formula, number of cysts in potato roots)” value came out at 80%.
With `CC(=O)NC1=NN(c2c(F)cccc2F)CC1` [Ia-2, N-[1-(2,6-Difluorophenyl)-4,5-dihydro-1H-pyrazol-3-yl]acetamide], in “physchem” (HPLC), the “log P” value turned out to be 1.46.
On the same count and under the same terms, for `Nc1ccn(-c2c(F)cccc2F)n1` [Ia-4, 1-(2,6-Difluorophenyl)-1H-pyrazole-3-amine] the value was 1.13.

By log P is commonly meant a log measure of how a compound divides between an organic and an aqueous phase.
